{"source": "ChEMBL document CHEMBL3097987", "about": "“Pyrrolizines: Promising scaffolds for anticancer drugs” (Bioorg Med Chem, 2014)", "key": {"Tubulin": {"target": "Tubulin", "assay": "Inhibition of tubulin (unknown origin) polymerization", "format": "protein-complex assay, Homo sapiens"}, "[1]": {"target": "Peptidyl-prolyl cis-trans isomerase NIMA-interacting 1 (Homo sapiens, UniProt Q13526)", "sequence (Q13526 whole entry)": "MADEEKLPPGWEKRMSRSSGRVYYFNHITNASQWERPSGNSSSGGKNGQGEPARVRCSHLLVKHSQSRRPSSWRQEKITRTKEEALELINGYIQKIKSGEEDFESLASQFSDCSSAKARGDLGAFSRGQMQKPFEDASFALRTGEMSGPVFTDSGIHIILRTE", "assay": "Inhibition of Pin-1 (unknown origin) using Suc-Ala-Glu-Pro-Phe-pNA as substrate preincubated for 300 seconds followed by substrate addition by UV/Vis spectrophotometric analysis"}, "MDA-MB-231 [2]": {"system": "MDA-MB-231", "assay": "Cytotoxicity against human MDA-MB-231 cells relative to 5-flurouracil", "format": "functional"}, "MDA-MB-231 [3]": {"system": "MDA-MB-231", "assay": "Cytotoxicity against human MDA-MB-231 cells relative to licofelone", "format": "functional"}, "MCF7 [4]": {"system": "MCF7", "assay": "Cytotoxicity against human MCF7 cells relative to 5-flurouracil", "format": "functional"}, "HT-29": {"system": "HT-29", "assay": "Cytotoxicity against human HT-29 cells relative to licofelone", "format": "functional"}, "MCF7 [5]": {"system": "MCF7", "assay": "Cytotoxicity against human MCF7 cells relative to licofelone", "format": "functional"}, "Aromatase": {"target": "T1, Aromatase (Homo sapiens, UniProt P11511)", "T1 sequence (P11511 whole entry)": "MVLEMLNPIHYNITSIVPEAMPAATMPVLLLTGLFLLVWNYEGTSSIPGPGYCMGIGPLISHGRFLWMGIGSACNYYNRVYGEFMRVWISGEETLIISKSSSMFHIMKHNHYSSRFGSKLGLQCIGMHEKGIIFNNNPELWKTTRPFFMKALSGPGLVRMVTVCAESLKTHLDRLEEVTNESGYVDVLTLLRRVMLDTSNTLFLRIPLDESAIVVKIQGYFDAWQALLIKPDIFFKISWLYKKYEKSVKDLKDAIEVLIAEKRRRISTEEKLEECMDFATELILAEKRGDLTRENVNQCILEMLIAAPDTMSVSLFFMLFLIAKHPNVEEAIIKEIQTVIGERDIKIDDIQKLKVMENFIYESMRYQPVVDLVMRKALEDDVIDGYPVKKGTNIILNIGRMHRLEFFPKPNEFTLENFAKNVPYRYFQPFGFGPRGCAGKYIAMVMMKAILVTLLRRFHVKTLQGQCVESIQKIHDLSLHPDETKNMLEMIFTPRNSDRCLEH", "assay": "Inhibition of aromatase (unknown origin)"}, "B16": {"system": "B16", "assay": "Cytotoxicity against mouse B16 cells assessed as tumor growth inhibition relative to control", "format": "functional"}, "[6]": {"assay": "Cytotoxicity against mouse mammary carcinoma 755 cells assessed as tumor growth inhibition relative to control", "format": "functional"}, "[7]": {"assay": "Cytotoxicity against mouse LLC cells assessed as tumor growth inhibition relative to control", "format": "functional, Lewis lung carcinoma"}, "Jensen sarcoma": {"system": "Jensen sarcoma", "assay": "Growth inhibition of rat Jensen sarcoma relative to control", "format": "functional"}, "[8]": {"assay": "Growth inhibition of mouse mammary carcinoma 755 cells relative to control", "format": "functional"}, "Bel-7402": {"system": "Bel-7402", "assay": "Ratio of cisplatin IC50 to compound IC50 for human Bel7402 cells", "format": "functional"}, "[9]": {"assay": "Antitumor activity against human Bel7402 cells by MTT assay", "format": "functional, cell-based", "details": "Bel-7402"}, "HT-1080": {"system": "HT-1080", "assay": "Ratio of cisplatin IC50 to compound IC50 for human HT1080 cells", "format": "functional"}, "[10]": {"assay": "Antitumor activity against human HT1080 cells by MTT assay", "format": "functional, cell-based", "details": "HT-1080"}}, "note": "pIC50, pKi: −log10 of the molar value.", "data": [{"smiles": "COc1ccc(-c2csc3c2-n2cccc2C3=O)cc1O", "values": [{"measurement": "pIC50", "setting": "Tubulin", "value": 5.54}]}, {"smiles": "CO[C@@H]1C[C@@H]2[C@@H](COP(=O)(O)O)[C@@H](C(=O)NCc3ccccc3)[C@@H](c3ccc4ccccc4c3)N2C1", "values": [{"measurement": "pKi", "setting": "[1]", "value": 5.05}]}, {"smiles": "CC1(C)Cc2c(-c3ccccc3)c(-c3ccc(Cl)cc3)c(C(=O)Cn3cncn3)n2C1", "values": [{"measurement": "fold change (FC)", "setting": "MDA-MB-231 [2]", "value": 2}, {"measurement": "fold change (FC)", "setting": "MDA-MB-231 [3]", "value": 2}, {"measurement": "fold change (FC)", "setting": "MCF7 [4]", "value": 2}, {"measurement": "fold change (FC)", "setting": "HT-29", "value": 2}, {"measurement": "fold change (FC)", "setting": "MCF7 [5]", "value": 2}]}, {"smiles": "O=C1/C(=C\\c2cccnc2)C(c2ccccc2)n2cccc21", "note": "(configuration not stated)", "values": [{"measurement": "pIC50", "setting": "Aromatase", "value": 5.52}]}, {"smiles": "O=C1/C(=C\\c2ccncc2)C(c2ccccc2)n2cccc21", "note": "(configuration not stated)", "values": [{"measurement": "pIC50", "setting": "Aromatase", "value": 6.19}]}, {"smiles": "CCOC(=O)c1c2n(c3c(SC)ncnc13)CCC2", "values": [{"measurement": "TGI", "setting": "B16", "value": 40, "unit": "%"}]}, {"smiles": "CCOC(=O)Sc1ncnc2c(C(=O)OCC)c3n(c12)CCC3", "values": [{"measurement": "TGI", "setting": "[6]", "value": 34, "unit": "%"}, {"measurement": "TGI", "setting": "B16", "value": 40, "unit": "%"}]}, {"smiles": "CCOC(=O)c1c2n(c3c(SCc4ccccc4)ncnc13)CCC2", "values": [{"measurement": "TGI", "setting": "B16", "value": 40, "unit": "%"}, {"measurement": "TGI", "setting": "[7]", "value": 43, "unit": "%"}]}, {"smiles": "NC(=O)c1c2n(c3c(-c4ccccc4)ncnc13)CCC2", "values": [{"measurement": "growth inhibition (GI)", "setting": "Jensen sarcoma", "value": 73, "unit": "%"}, {"measurement": "growth inhibition (GI)", "setting": "[8]", "value": 73, "unit": "%"}]}, {"smiles": "CN(C)/C=N/C(=O)c1c2n(c3c(-c4ccccc4)ncnc13)CCC2", "values": [{"measurement": "growth inhibition (GI)", "setting": "Jensen sarcoma", "value": 78, "unit": "%"}, {"measurement": "growth inhibition (GI)", "setting": "[8]", "value": 78, "unit": "%"}]}, {"smiles": "CSc1sc2c(c1-c1ccc([N+](=O)[O-])cc1)-n1cccc1/C2=N\\OCOCCN1CCN(C)CC1", "values": [{"measurement": "Ratio IC50", "setting": "Bel-7402", "value": 2.5}, {"measurement": "pIC50", "setting": "[9]", "value": 4.74}, {"measurement": "Ratio IC50", "setting": "HT-1080", "value": 3.3}, {"measurement": "pIC50", "setting": "[10]", "value": 5.09}]}, {"smiles": "O=C(NCc1ccccc1)C1C(COP(=O)(O)O)C2CCCN2C1c1ccc2ccccc2c1", "note": "(racemic)", "values": [{"measurement": "pKi", "setting": "[1]", "value": 4.82}]}, {"smiles": "O=C(NCc1ccccc1)C1C(COP(=O)(O)O)C2CCCN2C1c1ccccc1", "note": "(racemic)", "values": [{"measurement": "pKi", "setting": "[1]", "value": 4.36}]}, {"smiles": "O=C(NCc1ccccc1)C1C(COP(=O)(O)O)C2CCCN2C1c1c(F)c(F)c(F)c(F)c1F", "note": "(racemic)", "values": [{"measurement": "pKi", "setting": "[1]", "value": 4.80}]}, {"smiles": "O=C(NCc1ccc2c(c1)OCO2)C1C(COP(=O)(O)O)C2CCCN2C1c1ccc2ccccc2c1", "note": "(racemic)", "values": [{"measurement": "pKi", "setting": "[1]", "value": 4.49}]}, {"smiles": "COc1cc([C@@H]2c3cc4c(cc3C[C@H]3COC(=O)[C@@H]32)OCO4)cc(OC)c1OC", "note": "[DESOXYPODOPHYLLOTOXIN]", "values": [{"measurement": "pIC50", "setting": "Tubulin", "value": 5.62}]}]}
